# Measurements from paper PMC8392382, “Flavonoids as Human Intestinal α-Glucosidase Inhibitors” (Foods, 2021).
# Marks after values point to notes of the source that are not given here.
# How the values were obtained:
# human maltase = assay: Maltase inhibition in Caco-2/TC7 cell-free extract, maltose as substrate, HPAE-PAD; type: biochemical; settings: for IC50 / 15% inhibitory concentration (IC15) Maltase / 25% inhibitory concentration (IC25) Maltase: Caco-2/TC7 CFE, mean ± SEM, n = 3; for IC50: 20 mM maltose, 10 min 37 °C, read-out: 50% inhibitory concentration (IC50) Maltase; for 15% inhibitory concentration (IC15) Maltase / 25% inhibitory concentration (IC25) Maltase: maltose; for percent inhibition of maltase at maximum concentration tested: maximum concentration: acarbose 200, EGCG 1500, quercetin 200, quercetagetin 50, kaempferol 40, galangin 25 µM
# Description: Disaccharides and monosaccharides were analyzed by HPAE-PAD on the Dionex™ Integrion™ HPIC™ system (Thermo Fisher Scientific). Separation of the carbohydrates was achieved on a CarboPac PA210 column (2 × 150 mm), preceded by a CarboPac PA210 Guard column (2 × 30 mm), with the column and compartment temperatures maintained at 30 °C and 20 °C, respectively. Eluent was generated using a Dionex™ EGC 500 KOH eluent generator cartridge with Dionex™ continuously regenerated-anion trap column 600, with eluent concentration following a multistep gradient: 12 mM for 12 min, 100 mM for 8 min and 12 mM for 12 min, at a flow rate of 0.2 mL/min and with a sample injection volume of 2.5 μL. Detection was performed using a gold working electrode and AgCl reference electrode at pH ~ 12.0, with a collection rate of 2.00 Hz using the “Gold, Carbo, Quad” waveform. The total run time per sample was 32 min, with 3 min allowed between analyses for sample injection by autosampler. A wash injection of only H2O while following the same multistep eluent gradient was performed at the end of every batch (12–14 samples). All injections were performed in duplicate and peak identification was achieved by comparing retention times to the standards. Dionex™ Chromeleon™ 7 Chromatography Data System, version 7.2.9 (Thermo Fisher Scientific, Waltham, MA, USA), was used to process the chromatograms, ensuring peaks were suitably integrated before recording peak area. Sugars were quantified from peak areas using standard curves, with the standards prepared in the same buffer as the samples.
# (§1) To mimic intestinal digestion, an in vitro assay using Caco-2/TC7 cell extracts containing sucrase, maltase and isomaltase was conducted. Frozen cells were thawed, 1 mL ice-cold SPB added and then passed through a 21-G needle 15–20 times. The lysate was centrifuged at 14,000× g, 10 min at 4 °C and the supernatant containing cell-free extract (CFE) collected. Total protein concentration in the CFEs was determined by Bradford assay, using the Pierce Coomassie Bradford reagent and BSA standards (Thermo Fisher Scientific, Waltham, MA, USA).
# (§2) Assay mixtures, total volume 250 µL, containing CFE (final protein concentration at 0.1–0.35 mg/mL), with or without various concentrations of inhibitors/flavonoids, were prepared and kept on ice. The enzyme reaction was initiated by the addition of ≥20 mM sucrose, maltose or isomaltose and immediately incubating in a 37 °C water bath for 10 min (or various time points during method setup and validation). Following incubation, the enzyme activity was terminated by incubating in a 96 °C water bath for a further 10 min. A positive control without any added inhibitor/flavonoid was simultaneously tested in each batch, and negative controls without enzymes or substrates were also assayed to evaluate the stability of the inhibitors/compounds. Samples were prepared for HPAE-PAD analysis as described in Section 2.3. Specific enzyme activities were determined (U/mg CFE protein) and expressed as a percentage of control enzyme activities accordingly.
# (§3) Controls (CFE and substrate only) were prepared by replacing the volume of inhibitor with SPB. Activities of sucrase, maltase and isomaltase were considered as 100% (or 0% inhibition) in the absence of an inhibitor. […] Estimation of inhibition values were determined in GraphPad Prism and the percentage of inhibition of the sample was calculated following Equation (7) below, where SA = specific activity:(7) Inhibition %=SAcontrol − SAsample/SAcontrol×100
# Enzyme assays were performed at least once for CFEs from biological triplicates, with duplicate injections of each analyzed by HPAE-PAD. MS Excel (Microsoft, Redmond, WA, USA) was used for data processing and analysis. Final inhibition values were expressed as the percentage of control activity (%). […]
# human isomaltase = target: T1, human isomaltase (Homo sapiens, UniProt P14410); assay: Isomaltase inhibition in Caco-2/TC7 cell-free extract, isomaltose as substrate, HPAE-PAD; type: biochemical; settings: for 15% inhibitory concentration (IC15) Isomaltase / 25% inhibitory concentration (IC25) Isomaltase: isomaltose; for percent inhibition of isomaltase at maximum concentration tested: maximum concentration: acarbose 200, EGCG 1500, quercetin 200, quercetagetin 50, kaempferol 40, galangin 25 µM
# T1 construct: an in vitro assay using Caco-2/TC7 cell extracts containing sucrase, maltase and isomaltase was conducted; endogenous in cells; host or cells: Caco-2/TC7 (human colon adenocarcinoma), 21 days post-confluence, crude cell-free extract
# Description: (§4) Disaccharides and monosaccharides were analyzed by HPAE-PAD on the Dionex™ Integrion™ HPIC™ system (Thermo Fisher Scientific). Separation of the carbohydrates was achieved on a CarboPac PA210 column (2 × 150 mm), preceded by a CarboPac PA210 Guard column (2 × 30 mm), with the column and compartment temperatures maintained at 30 °C and 20 °C, respectively. […] Detection was performed using a gold working electrode and AgCl reference electrode at pH ~ 12.0, with a collection rate of 2.00 Hz using the “Gold, Carbo, Quad” waveform. […] A wash injection of only H2O while following the same multistep eluent gradient was performed at the end of every batch (12–14 samples). All injections were performed in duplicate and peak identification was achieved by comparing retention times to the standards. Dionex™ Chromeleon™ 7 Chromatography Data System, version 7.2.9 (Thermo Fisher Scientific, Waltham, MA, USA), was used to process the chromatograms, ensuring peaks were suitably integrated before recording peak area. Sugars were quantified from peak areas using standard curves, with the standards prepared in the same buffer as the samples.
# as §1, §2
# as §3, with “SPB.” for “SPB. Activities of sucrase, maltase and isomaltase were considered as 100% (or 0% inhibition) in the absence of an inhibitor.”
# (§5) Enzyme assays were performed at least once for CFEs from biological triplicates, with duplicate injections of each analyzed by HPAE-PAD. MS Excel (Microsoft, Redmond, WA, USA) was used for data processing and analysis. Final inhibition values were expressed as the percentage of control activity (%). The IC15, IC25 and IC50 values were calculated based on the plots created using GraphPad, using the dose-response inhibition (log (inhibitor) vs. normalized response—variable slope) model. The same software was used to determine the apparent Km and Vmax values under the enzyme–kinetic inhibition model, and for statistical analyses using non-parametric multiple comparisons tests. A difference was considered significant at p < 0.05 for all comparisons. All data are expressed as the mean ± SD or SEM, specified accordingly.
# human sucrase = target: T2, human sucrase (Homo sapiens, UniProt P14410); assay: Sucrase inhibition in Caco-2/TC7 cell-free extract, sucrose as substrate, HPAE-PAD; type: biochemical; settings: for 15% inhibitory concentration (IC15) Sucrase / 25% inhibitory concentration (IC25) Sucrase / IC50: Caco-2/TC7 CFE, mean ± SEM, n = 3; for 15% inhibitory concentration (IC15) Sucrase / 25% inhibitory concentration (IC25) Sucrase: sucrose; for IC50: 20 mM sucrose, 10 min 37 °C, read-out: 50% inhibitory concentration (IC50) Sucrase; for percent inhibition of sucrase at maximum concentration tested: maximum concentration: acarbose 200, EGCG 1500, quercetin 200, quercetagetin 50, kaempferol 40, galangin 25 µM
# T2 construct: an in vitro assay using Caco-2/TC7 cell extracts containing sucrase, maltase and isomaltase was conducted; endogenous in cells; host or cells: Caco-2/TC7 (human colon adenocarcinoma), 21 days post-confluence, crude cell-free extract
# Description: as §4, §1, §2
# as §3, with “SPB.” for “SPB. Activities of sucrase, maltase and isomaltase were considered as 100% (or 0% inhibition) in the absence of an inhibitor.”
# as §5
# [1] = system: human maltase expressed in yeast; assay: Inhibition of human maltase expressed in yeast (literature); type: biochemical; settings: compared with this paper and ref 30
# [2] = target: human maltase expressed in yeast; design: method as in PMID 32218677; settings: cited from earlier work
# yeast α-glucosidase = system: yeast α-glucosidase; design: method as in PMID 26212963, PMID 30245236, PMID 31007116, PMID 23137344; settings: cited from earlier work
# [3] = design: method as in PMID 9414116; settings: cited from earlier work
# rat maltase = settings: cited from earlier work
# rat sucrase = settings: cited from earlier work
# [4] = Caco-2/TC7 CFE, mean ± SEM, n = 3
# T1 sequence (P14410 whole entry): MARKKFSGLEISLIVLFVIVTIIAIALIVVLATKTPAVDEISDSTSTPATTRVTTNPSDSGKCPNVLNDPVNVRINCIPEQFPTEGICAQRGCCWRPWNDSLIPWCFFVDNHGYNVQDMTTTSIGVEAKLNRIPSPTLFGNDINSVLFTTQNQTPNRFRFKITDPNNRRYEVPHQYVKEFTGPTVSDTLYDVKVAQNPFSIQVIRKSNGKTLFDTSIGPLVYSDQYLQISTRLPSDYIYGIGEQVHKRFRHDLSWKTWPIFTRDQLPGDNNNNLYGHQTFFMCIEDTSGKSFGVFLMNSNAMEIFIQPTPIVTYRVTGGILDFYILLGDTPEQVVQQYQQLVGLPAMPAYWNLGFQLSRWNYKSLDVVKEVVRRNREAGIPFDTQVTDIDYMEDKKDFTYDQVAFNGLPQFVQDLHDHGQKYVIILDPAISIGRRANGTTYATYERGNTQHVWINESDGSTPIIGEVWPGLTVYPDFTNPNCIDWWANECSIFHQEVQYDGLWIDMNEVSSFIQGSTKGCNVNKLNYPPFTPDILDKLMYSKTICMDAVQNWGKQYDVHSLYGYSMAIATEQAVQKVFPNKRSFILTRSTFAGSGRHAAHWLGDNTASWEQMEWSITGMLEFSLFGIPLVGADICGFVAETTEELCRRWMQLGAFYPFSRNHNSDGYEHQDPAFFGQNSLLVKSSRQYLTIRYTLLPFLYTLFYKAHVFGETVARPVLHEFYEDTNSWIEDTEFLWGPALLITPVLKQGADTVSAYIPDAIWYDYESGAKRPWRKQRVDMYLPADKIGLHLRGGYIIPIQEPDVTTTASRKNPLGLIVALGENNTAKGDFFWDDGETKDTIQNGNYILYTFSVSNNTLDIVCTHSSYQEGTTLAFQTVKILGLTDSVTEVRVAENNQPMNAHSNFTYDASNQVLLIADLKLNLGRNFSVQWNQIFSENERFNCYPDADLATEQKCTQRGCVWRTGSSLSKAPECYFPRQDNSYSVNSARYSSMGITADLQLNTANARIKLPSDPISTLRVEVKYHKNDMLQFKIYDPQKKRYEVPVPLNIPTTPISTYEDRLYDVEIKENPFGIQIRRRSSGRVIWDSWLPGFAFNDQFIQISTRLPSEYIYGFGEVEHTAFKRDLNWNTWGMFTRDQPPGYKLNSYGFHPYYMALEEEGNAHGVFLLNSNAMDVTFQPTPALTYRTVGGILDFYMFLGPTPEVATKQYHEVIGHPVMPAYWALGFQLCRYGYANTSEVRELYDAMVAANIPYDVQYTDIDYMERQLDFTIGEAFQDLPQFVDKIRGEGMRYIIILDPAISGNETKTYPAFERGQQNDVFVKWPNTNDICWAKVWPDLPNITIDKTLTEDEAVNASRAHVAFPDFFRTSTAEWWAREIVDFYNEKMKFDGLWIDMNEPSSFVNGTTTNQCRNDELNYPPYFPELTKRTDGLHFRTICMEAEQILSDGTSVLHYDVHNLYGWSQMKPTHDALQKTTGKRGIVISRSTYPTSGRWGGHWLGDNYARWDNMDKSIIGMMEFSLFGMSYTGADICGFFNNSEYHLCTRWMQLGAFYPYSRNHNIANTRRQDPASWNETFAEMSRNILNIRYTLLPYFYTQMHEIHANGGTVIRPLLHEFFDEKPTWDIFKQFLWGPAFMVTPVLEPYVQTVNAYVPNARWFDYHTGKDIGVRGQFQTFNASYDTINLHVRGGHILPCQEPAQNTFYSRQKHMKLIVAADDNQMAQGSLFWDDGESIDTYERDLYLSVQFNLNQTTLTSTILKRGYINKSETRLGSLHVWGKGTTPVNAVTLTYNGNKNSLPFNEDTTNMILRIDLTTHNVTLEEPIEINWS
# T2 sequence (P14410 whole entry): as above
SMILES,IC50 (human maltase),15% inhibitory concentration (IC15) Isomaltase (human isomaltase; [4]),25% inhibitory concentration (IC25) Isomaltase (human isomaltase; [4]),percent inhibition of isomaltase at maximum concentration tested (human isomaltase),15% inhibitory concentration (IC15) Sucrase (human sucrase),25% inhibitory concentration (IC25) Sucrase (human sucrase),15% inhibitory concentration (IC15) Maltase (human maltase),25% inhibitory concentration (IC25) Maltase (human maltase),percent inhibition of maltase at maximum concentration tested (human maltase),IC50 (human sucrase),percent inhibition of sucrase at maximum concentration tested (human sucrase),other results
"C[C@H]1O[C@H](O[C@H]2[C@H](O)[C@@H](O)[C@@H](O[C@H]3[C@H](O)[C@@H](O)C(O)O[C@@H]3CO)O[C@@H]2CO)[C@H](O)[C@@H](O)[C@@H]1N[C@H]1C=C(CO)[C@@H](O)[C@H](O)[C@H]1O (stereo partly drawn) [Acarbose, acarbose, reference compound]",13.9 ± 2.3 µM,7.8 ± 0.7 ^a µM,14.4 ± 1.1 ^a µM,96%,0.32 ± 0.05 ^a µM,0.60 ± 0.09 ^a µM,2.4 ± 0.4 ^a µM,4.6 ± 0.8 ^a µM,more than 50%,–,–,–
"O=C(O[C@@H]1Cc2c(O)cc(O)cc2O[C@@H]1c1cc(O)c(O)c(O)c1)c1cc(O)c(O)c(O)c1 [EGCG, (−)-epigallocatechin-3-gallate, reference compound]",186 ± 40.4 µM,118.6 ± 18.0 ^b µM,241.9 ± 40.4 ^b µM,71%,41.2 ± 6.0 ^d µM,72.9 ± 10.3 ^d µM,21.7 ± 4.5 ^c µM,43.8 ± 9.2 ^b µM,–,175 ± 60.1 µM,100%,"IC50 (human isomaltase; Caco-2/TC7 CFE, 20 mM isomaltose, 10 min 37 °C, mean ± SEM, n = 3, read-out: 50% inhibitory concentration (IC50) Isomaltase): 462 ± 60.3 µM; fold lower IC50 (human maltase expressed in yeast) than with Caco-2/TC7 as the enzyme origin [1]: 8–10 fold; IC50 [2]: 20 µM"
"O=c1c(O)c(-c2ccc(O)c(O)c2)oc2cc(O)c(O)c(O)c12 [Quercetagetin, quercetagetin]",–,5.9 ± 1.9 ^a µM,20.3 ± 7.3 ^a µM,ND (29%),3.5 ± 1.1 ^b µM,6.6 ± 1.8 ^b µM,3.4 ± 0.9 ^ab µM,6.7 ± 1.5 ^a µM,ND (48%),21.7 ± 5.3 µM,> 50%,–
"O=c1c(O)c(-c2ccc(O)c(O)c2)oc2cc(O)cc(O)c12 [Quercetin, quercetin]",–,104.0 ± 18.8 ^b µM,–,ND (18%),40.5 ± 5.1 ^d µM,69.5 ± 8.2 ^d µM,43.0 ± 3.1 ^d µM,82.0 ± 4.6 ^c µM,–,162 ± 13.6 µM,> 50%,half-life [3]: ~ 24 h; IC50 (rat maltase): 281 µM; IC50 (rat sucrase): > 400 µM

# Further lines, with some results ahead:
IC50 (human maltase),15% inhibitory concentration (IC15) Isomaltase (human isomaltase; [4]),25% inhibitory concentration (IC25) Isomaltase (human isomaltase; [4]),percent inhibition of isomaltase at maximum concentration tested (human isomaltase),15% inhibitory concentration (IC15) Sucrase (human sucrase),25% inhibitory concentration (IC25) Sucrase (human sucrase),SMILES,15% inhibitory concentration (IC15) Maltase (human maltase),25% inhibitory concentration (IC25) Maltase (human maltase),percent inhibition of maltase at maximum concentration tested (human maltase),IC50 (human sucrase),percent inhibition of sucrase at maximum concentration tested (human sucrase),other results
–,9.3 ± 1.2 ^a µM,–,–,12.7 ± 2.1 ^c µM,20.8 ± 5.5 ^c µM,"O=c1c(O)c(-c2ccccc2)oc2cc(O)cc(O)c12 [Galangin, galangin]",8.7 ± 1.1 ^abc µM,17.6 ± 2.2 ^a µM,ND (22%),–,–,inhibition at 25 µM (human isomaltase; read-out: percent inhibition of isomaltase at maximum concentration tested): 22%; inhibition at 25 µM (human sucrase; read-out: percent inhibition of sucrase at maximum concentration tested): 33%
–,12.5 ± 3.7 ^a µM,34.0 ± 8.4 ^a µM,ND (27%),14.2 ± 3.7 ^c µM,30.3 ± 8.2 ^c µM,"O=c1c(O)c(-c2ccc(O)cc2)oc2cc(O)cc(O)c12 [Kaempferol, kaempferol]",19.0 ± 5.5 ^bc µM,–,ND (25%),–,ND (31%),percent inhibition of maltase at maximum concentration tested (human maltase; listed as kaempferol): < 32%; percent inhibition of isomaltase at maximum concentration tested (human isomaltase; listed as kaempferol): < 32%; percent inhibition of sucrase at maximum concentration tested (human sucrase; listed as kaempferol): < 32%; yeast α-glucosidase inhibition (yeast α-glucosidase): 95%
